Data on three compounds can be found in patent US9132084B2, “Methods for administration and formulations for the treatment of regional adipose tissue” (NEOTHETICS, INC., priority 2009, dated 2015).

The conditions of series [1]: versus albuterol, a short-acting hydrophilic beta-adrenergic agonist; cited from earlier work.
Series [2] can be described thus: Plasma pharmacokinetics following single intravenous and subcutaneous injections of salmeterol xinafoate. The conditions noted are these: for AUC(0-inf): AUCinf; for half-life: t1/2. As for the experimental part: Salmeterol xinafoate was formulated in 5% PEG-400 in 0.9% saline, USP, at concentrations of 0.1, 1, 10, and 100 μg/mL. 1 male and 1 female non-naive Gottingen minipigs (18.4 to 19.5 kg at the time of the IV dose) were utilized. The animals were housed individually.
Each minipig received a single IV injection followed by SC doses of the salmeterol formulation. The IV dose was administered by slow bolus (1 minute; 0.0167 hr) into the marginal ear vein, whereas the first SC dose was administered as a bolus injection along the back (neck-region) where there was a longitudinal fat depot. The second SC dose was distributed in 5 separate SC injection sites. The fourth, fifth, and sixth administrations were SC administrations divided over 5 injection sits of different graded concentrations (0.1, 1, and 10 μg/mL of salmeterol in 5% PEG). Each dose was separated by at least a 3-day washout period. Blood samples (approximately 4 mL) were collected via the branchiocephalic plexus at pre-dose and at 2.00, 5.00, 10.0, 20.0, 30.0 and 45.0 minutes, and at 1.00, 2.00, 4.00, 8.00 and 24.0 hr post-dose. Blood samples were placed in tubes containing K2-EDTA as the anticoagulant. Samples were processed to plasma by centrifugation and stored frozen at approximately −70° C. (+/−15° C.) until shipment for analysis.
Plasma samples were analyzed for salmeterol using a qualified liquid chromatography/mass spectrometry/mass mass spectrometry (LC/MS/MS) method. The lower limit of quantitation (LLOQ) was 2.50 pg/mL. Samples were analyzed within a maximum of 14.0 days of collection.
Non-compartmental pharmacokinetic parameters were calculated using WinNonlin 5.2 software, NCA model 202, IV infusion input for the IV data and NCA model 200, extravascular input for the SC data. Individual plasma concentrations for each animal were used in the calculation of pharmacokinetic parameters. Nominal collection times and doses were used in the calculations. The area under the plasma concentration-time curve (AUC) was calculated using linear trapezoidal approximation (linear/log interpolation). Concentration values below the assay limit of quantitation were set to zero for calculations. The maximum plasma concentration (Cmax) and the time of its occurrence (Tmax) were verified by inspection. The half-life (t1/2) values were calculated using the last 3 plasma concentrations with nonzero values, if data permitted.

Series [3] in a line: Phase 1 open-label pharmacokinetics and safety of SX and FP co-administered subcutaneously in healthy volunteers. The note with it: 52 μg salmeterol xinafoate with 22 μg fluticasone propionate SC once per week for 4 weeks.
Experimental: Part III: An open-label, multiple-dose pharmacokinetic study of the selected SX+FP combined dose administered subcutaneously either 1 time per week for 4 weeks or 3 times per week for 4 weeks in twelve (12) healthy volunteers.
A 400 μg/mL sterile, preservative-free, clear, aqueous solution for injection of SX is contained in a 5 mL single-use glass vial. Each 5 mL single-use glass vial contains 2.6 mL of SX solution (400 μg/mL) which is stored frozen (−15° C. to −25° C.) and protected from light until dose preparation. A 25 mg/mL sterile, preservative free, clear, aqueous solution for injection of FP is contained in a 2 mL single-use glass vial. Each 2 mL single-use glass vial contains 1.0 mL of FP solution (25 μg/mL) which is stored frozen (−15° C. to −25° C.) and protected from light until dose preparation. Diluent: A sterile, preservative free, clear, aqueous solution of 20% PEG 400, 1% polysorbate 80, and sterile water for injection contained in a 10 mL single-use glass vial. Each 10 mL single-use glass vial contains 5.0 mL of diluent solution which should be stored at room temperature (15° C. to 25° C.). Prior to administration, the drug products are thawed, mixed, and if necessary diluted with sterile diluent to provide the target concentrations for dose administration. […]
Series [4] concerns abdominal subcutaneous adipose tissue. Put plainly: Phase 2 double-masked evaluation of safety and efficacy of SX and FP subcutaneous injection. The note with it: total weekly SX/FP dose of 11 μg/22 μg.
Text: A Phase 2 study to examine the potential of selected doses of salmeterol xinafoate (SX) and fluticasone propionate (FP) co-administered to reduce abdominal subcutaneous adipose tissue, which is an interim surrogate to guide studies in subjects with symptomatic exophthalmos associated with thyroid-related eye disease (TED). The study also evaluated the safety and efficacy of subcutaneous injections of salmeterol xinafoate (SX) and fluticasone propionate (FP) for the reduction of abdominal (peri- and infra-umbilical) adiposity. The study compared the efficacy and safety of salmeterol xinafoate (SX) and fluticasone propionate (FP) at 1.0 μg FP and 0.05 μg SX once weekly to 1 mL placebo once weekly for 8 weeks for the reduction of measurable, abdominal subcutaneous adipose tissue. Additionally, the study evaluated in a double-masked, placebo-controlled design, the pharmacokinetics following multiple injected doses of salmeterol xinafoate (SX) and fluticasone propionate (FP) once weekly for 8 weeks. […]
All injections were performed in an outpatient setting. […] Once the study was completed and unmasked, only the serum samples collected from subjects receiving the higher combination dose were analyzed.
The test system is the same in series [5].
Text: To evaluate in a single masked, placebo-controlled design, the safety and exploratory efficacy measures of subcutaneous injections of three different doses of the combination of salmeterol xinafoate (SX) and fluticasone propionate (FP) administered by subcutaneous injection 1 or 2 times per week for 4 weeks to subjects with measurable abdominal subcutaneous adipose tissue.
A single-masked, placebo-controlled multiple-dose study of the safety and efficacy of three different doses of the combination of salmeterol xinafoate (SX) and fluticasone propionate (FP) administered by subcutaneous injection 1 or 2 times per week for 4 weeks in 60 subjects with measurable abdominal subcutaneous adipose tissue.
A 400 μg/mL sterile, preservative-free, clear, aqueous solution for injection of SX is contained in a 5 mL single-use glass vial. Each 5 mL single-use glass vial contains 2.6 mL of SX solution (400 μg/mL) which is stored frozen (−15° C. or below) and protected from light until dose preparation. A 25 mg/mL sterile, preservative free, clear, aqueous solution for injection of FP is contained in a 2 mL single-use glass vial. […]
Measurements of waist were taken at specified time points. […] The full waist circumference, and the right and the left hemi-circumferences were recorded.
Setting [6] is: female, Gottingen, minipig, in vivo, iv, 4 ug/kg.
Where [7] appears, read: female, Gottingen, minipig, in vivo, sc, 0.4 ug/kg.
[8] abbreviates: female, Gottingen, minipig, in vivo, sc, 4 ug/kg.
Setting [9] is: male, Gottingen, minipig, in vivo, iv, 4 ug/kg.
[10] abbreviates: male, Gottingen, minipig, in vivo, sc, 0.4 ug/kg.
Where [11] appears, read: male, Gottingen, minipig, in vivo, sc, 4 ug/kg.

As to `OCc1cc(C(O)CNCCCCCCOCCCCc2ccccc2)ccc1O` (racemic) [Salmeterol, ±2-(hydroxymethyl)-4-[1-hydroxy-2-[6-(4-phenylbutoxy)hexylamino]ethyl]-phenol], in series [1], the “lipophilicity relative to albuterol” value is given as “at least 10,000 times”. Besides, the Tmax in series [2] (SC5 (5 sites) 4 μg/kg, male 1-0771) came out at 0.0833 h; in series [2] (female, Gottingen, minipig, in vivo, iv, 4 ug/kg, Tmax), 0.0333 h; in series [2] (female, Gottingen, minipig, in vivo, sc, 0.004 ug/kg, Tmax), 1 h; in series [2] (female, Gottingen, minipig, in vivo, sc, 0.04 ug/kg, Tmax) it was 0.0333 h; in series [2] (female, Gottingen, minipig, in vivo, sc, 0.4 ug/kg, Tmax), 0.0333 h; in series [2] (male, Gottingen, minipig, in vivo, iv, 4 ug/kg, Tmax), 0.0333 h. Moreover, the Tmax turned out to be 0.0833 h in series [2] (male, Gottingen, minipig, in vivo, sc, 0.04 ug/kg); 0.0833 h in series [2] (setting [10]); 0.0833 h in series [2] (setting [11]). Besides, the “salmeterol partition ratio (plasma Cmax ratio of subcutaneous to intravenous administration)” value in series [2] (both, Gottingen, minipig, in vivo) is listed as 0.1. In addition, the concentration at 0.0833 hr was 0.485 ng/mL in series [2] (female, Gottingen, minipig, in vivo); 0.00317 ng/mL in series [2] (female, Gottingen, minipig, in vivo, 0.04 mg/kg); 1.3 ng/mL in series [2] (female, Gottingen, minipig, in vivo, iv); 0.227 ng/mL in series [2] (female, Gottingen, minipig, in vivo, sc); 0.681 ng/mL in series [2] (male, Gottingen, minipig, in vivo); 0.00277 ng/mL in series [2] (male, Gottingen, minipig, in vivo, 0.04 mg/kg). Further, the concentration at 0.0833 hr in series [2] (male, Gottingen, minipig, in vivo, iv) was determined as 1.38 ng/mL; in series [2] (male, Gottingen, minipig, in vivo, sc), 0.575 ng/mL. In addition, the bioavailability in series [2] (female, Gottingen, minipig, in vivo, 0.4 ug/kg, F (bioavailability)) was 112%; in series [2] (female, Gottingen, minipig, in vivo, sc, 4 ug/kg, F (bioavailability)) it was 126%; in series [2] (female, Gottingen, minipig, in vivo, sc, 4 ug/kg, bioavailability) it was 126 to 137%; in series [2] (male, Gottingen, minipig, in vivo, 0.4 ug/kg, F (bioavailability)), 78.9%; in series [2] (male, Gottingen, minipig, in vivo, sc, 4 ug/kg, F (bioavailability)), 73.7%; in series [2] (male, Gottingen, minipig, in vivo, sc, 4 ug/kg, bioavailability) it was 73.7 to 86.3%. The Vd in series [2] (setting [6]) was found to be 22.1 L/kg; in series [2] (setting [9]) it was 17.1 L/kg. The clearance in series [2] (setting [6]) is 45.5 mL/min/kg; in series [2] (setting [9]), 38 mL/min/kg. In addition, the AUC(0-inf) worked out at 1.47 ng·h/mL in series [2] (setting [6]); 0.164 ng·h/mL in series [2] (setting [7]); 1.85 ng·h/mL in series [2] (setting [8]); 1.75 ng·h/mL in series [2] (setting [9]); 0.138 ng·h/mL in series [2] (setting [10]); 1.29 ng·h/mL in series [2] (setting [11]). Further, the Cmax worked out at 4.95 ng/mL in series [2] (female, Gottingen, minipig, in vivo, iv, 4 ug/kg, Cmax); 0.00308 ng/mL in series [2] (female, Gottingen, minipig, in vivo, sc, 0.004 ug/kg, Cmax); 0.00831 ng/mL in series [2] (female, Gottingen, minipig, in vivo, sc, 0.04 ug/kg, Cmax); 0.113 ng/mL in series [2] (female, Gottingen, minipig, in vivo, sc, 0.4 ug/kg, Cmax); 0.626 ng/mL in series [2] (setting [8]); 0.403 ng/mL in series [2] (female, Gottingen, minipig, in vivo, sc, 4 ug/kg, Cmax). Besides, the Cmax in series [2] (male, Gottingen, minipig, in vivo, iv, 4 ug/kg, Cmax) stood at 4.29 ng/mL; in series [2] (male, Gottingen, minipig, in vivo, sc, 0.04 ug/kg, Cmax), 0.00277 ng/mL; in series [2] (male, Gottingen, minipig, in vivo, sc, 0.4 ug/kg, Cmax), 0.0645 ng/mL; in series [2] (setting [11]) it was 0.681 ng/mL; in series [2] (male, Gottingen, minipig, in vivo, sc, 4 ug/kg, Cmax) it was 0.575 ng/mL; in series [2] (minipig, in vivo, 0.004 ug/kg), 0 ng/mL. For the same compound, the half-life in series [2] (setting [6]) was 9.52 h; in series [2] (setting [7]) it was 2.88 h; in series [2] (setting [8]) it was 6.02 h; in series [2] (setting [9]) it was 7.89 h; in series [2] (setting [10]), 2.94 h; in series [2] (setting [11]), 5.92 h. Also, the “F (bioavailability)” value turned out to be 1.12 in series [2] (setting [7]), 1.37 in series [2] (setting [8]), 0.789 in series [2] (setting [10]) and 0.863 in series [2] (setting [11]). In addition, the AUCinf in series [2] (setting [8]) was determined as 2.01 ng·h/mL; in series [2] (setting [11]), 1.51 ng·h/mL. Also, the results for the t1/2 in series [2] (setting [8]) and in series [2] (setting [11]) were 8.58 h and 6.84 h, respectively. For the same compound, in series [2] (minipig, in vivo), the “partition ratio relative to the partition ratio of formoterol” value is “about five times lower”.

fluticasone propionate: the “Cmax and AUC at day 22 compared to day 1” value in series [3] is reported as “increase”. Besides, in series [4], the “plasma levels relative to 505(b)(2) reference levels produced by an FDA-approved drug” value is reported as “⅓-⅕”.

In the case of `OCc1cc(C(O)CNCCCCCCOCCCCc2ccccc2)ccc1O` (stereo not drawn) [salmeterol xinafoate], the “efficacy of once per week versus twice per week dosing” value in series [5] (human clinical trial, FIGS. 3B and 7B) is reported as “more efficacious than twice per week dosing”. The “dose-therapeutic efficacy response (change in waist circumference)” value in series [5] (lowest dose 0.5 μg salmeterol xinafoate once per week for 4 weeks, with fluticasone, versus higher weekly doses) is listed as “greatest therapeutic efficacy”.

As usually defined, the Tmax is the time from dosing to the highest level. For orientation: Vd means a proportionality between amount in the body and measured concentration, not a real space. A higher Vd goes with wide distribution into tissue. A word on the clearance: it is the volume of plasma or blood freed of the substance per unit of time. High values mean a high capacity for elimination, low ones a low capacity for elimination. In general, AUC(0-inf) refers to total exposure, with the tail of the curve extrapolated. Higher therefore signals more exposure. By Cmax is commonly meant the maximum level reached in the sampled fluid or tissue. Broadly, the half-life is how long it takes for the measured level to halve.
